One test addresses SARS-CoV-2 Mpro (Severe acute respiratory syndrome coronavirus 2, UniProt P0DTD1). Briefly: biochemical. Conditions: for IC50: IC50, enzyme 100 nM, substrate 20 μM, 10 min preincubation, pH 6.5; for activity reduction vs. compound 30: compared with more active diastereomer of 30; for inhibition at 20 µM: read-out: % inhibition at 20 μM.
The subject of test [1] is SARS-CoV-2 (Washington strain, 2020). Briefly: microbe, parasite or virus in culture. Type of test: cell-based. The following applies: for EC68 (half-log reduction of virus titer): 0.01 MOI.
Where [2] appears, read: Severe acute respiratory syndrome coronavirus 2, Vero, read-out: inhibition of SARS-CoV-2 replication.

Molecules are shown by their SMILES.

Here are results for twelve compounds from publication PMC10922772 (ACS infectious diseases, 2024).

With `CC1OC1C(=O)N(c1ccc(C(C)(C)C)cc1)C(C(=O)NC1CCCCC1)c1cccnc1` [(R, S, R)- and (S, R, S)-35, N-(4-(tert-Butyl)phenyl)-N-(2-(cyclohexylamino)-2-oxo-1-(pyridin-3-yl)ethyl)-3-methyloxirane-2-carboxamide], at SARS-CoV-2 Mpro, the “activity difference between the two separated diastereomers” value is given as more than 10 fold, it took 1.9 ± 0.21 µM to reach half-maximal inhibition (IC50) and the “activity reduction vs. compound 30” value was not above 3 fold. In test [1] (Vero cells, 48 h), the “EC68 (half-log reduction of virus titer)” value is listed as 15 μM.

Regarding `CC(C)(C)c1ccc(N(C(=O)C2CO2)C(C(=O)NC2CCCCC2)c2cccnc2)cc1` [(R, S)- and (S, R)-30, N-(4-(tert-Butyl)phenyl)-N-(2-(cyclohexylamino)-2-oxo-1-(pyridin-3-yl)ethyl)oxirane-2-carboxamide], at SARS-CoV-2 Mpro, the “activity difference between the two separated diastereomers” value was more than 10 fold and 0.76 ± 0.18 µM corresponded to half-maximal inhibition (IC50). Further, in test [1] (Severe acute respiratory syndrome coronavirus 2, Vero, 48 h), the EC90 was 15 µM. For the same compound, in test [1] (Vero cells, 48 h), the “EC68 (half-log reduction of virus titer)” value is 5 μM.

In the case of `CC(C)(C)c1ccc(N(C(=O)C2OC2(C)C)C(C(=O)NC2CCCCC2)c2cccnc2)cc1` (stereo not shown) [Compound 36, N-(4-(tert-Butyl)phenyl)-N-(2-(cyclohexylamino)-2-oxo-1-(pyridin-3-yl)ethyl)-3,3-dimethyloxirane-2-carboxamide], at SARS-CoV-2 Mpro, the concentration for half-maximal inhibition (IC50) came out at 2.5 ± 0.28 µM and the “activity reduction vs. compound 30” value is recorded as not above 3 fold. In addition, the “antiviral activity (in words)” value in test [1] (at 15 μM, Vero cells) was “inactive”.

On SARS-CoV-2 Mpro, `CCCCNC(=O)C(c1cccnc1)N(C(=O)CCl)c1ccc(C(C)(C)C)cc1` (stereo not shown) [Compound 24, N-Butyl-2-(N-(4-(tert-butyl)phenyl)-2-chloroacetamido)-2-(pyridin-3-yl)acetamide] returned an IC50 of 2.4 ± 0.3 µM.

At SARS-CoV-2 Mpro, `CC(C)(C)NC(=O)C(c1cccnc1)N(C(=O)CCl)c1ccc(C(C)(C)C)cc1` (stereo not shown) [Compound 13, N-(tert-Butyl)-2-(N-(4-(tert-butyl)phenyl)-2-chloroacetamido)-2-(pyridin-3-yl)acetamide] returned an IC50 of 0.6 ± 0.05 µM. Besides, in test [1] (setting [2]), the inhibition at 3 µM came out at 68% and the inhibition at 5 µM was 97%. The “EC68 (half-log reduction of virus titer)” value in test [1] (Vero cells, 48 h) is given as 3 μM. The compound further gave a titer reduction in test [1] (at 3 μM, Vero cells) of 0.5 log. Moreover, in test [1] (at 5 μM, Vero cells), the titer reduction turned out to be 1.5 log.

For the compound `CC1OC1C(=O)N(c1ccc(C(C)(C)C)cc1)C(C(=O)NC(C)(C)C)c1cccnc1` [(R, S, R)- and (S, R, S)-39, N-(4-(tert-Butyl)phenyl)-N-(2-(tert-butylamino)-2-oxo-1-(pyridin-3-yl)ethyl)-3-methyloxirane-2-carboxamide], the 50% inhibitory concentration (IC50) on SARS-CoV-2 Mpro worked out at 4.33 ± 0.32 µM.

Take `O=C(NCc1ccccc1)C(c1cccnc1)N(C(=O)c1ccco1)c1ccc(C2CO2)cc1` (stereo not shown) [Compound 2, N-(2-(Benzylamino)-2-oxo-1-(pyridin-3-yl)ethyl)-N-(4-(oxiran-2-yl)phenyl)furan-2-carboxamide]: the inhibition at 20 µM at SARS-CoV-2 Mpro is 18%.

In the case of `C=Cc1ccc(N(C(=O)c2ccco2)C(C(=O)NCc2ccccc2)c2cccnc2)cc1` (stereo not shown) [Compound 3, N-(2-(Benzylamino)-2-oxo-1-(pyridin-3-yl)ethyl)-N-(4-vinylphenyl)furan-2-carboxamide], the inhibition at 20 µM at SARS-CoV-2 Mpro amounted to 26%.

In turn, `CC(C)(C)NC(=O)C(c1cccnc1)N(C(=O)CCl)c1ccc(CC2CO2)cc1` (stereo not shown) [Compound 17, N-(tert-Butyl)-2-(2-chloro-N-(4-(oxiran-2-ylmethyl)phenyl)acetamido)-2-(pyridin-3-yl)acetamide] yielded a concentration for half-maximal inhibition (IC50) at SARS-CoV-2 Mpro of 3.6 ± 0.3 µM.

Consider `Nc1ccc(N(C(=O)c2ccco2)C(C(=O)NCc2ccccc2)c2cccnc2)cc1` (stereo not shown) [Compound 11, N-(4-Aminophenyl)-N-(2-(benzylamino)-2-oxo-1-(pyridin-3-yl)ethyl)furan-2-carboxamide], for which the inhibition at 20 µM on SARS-CoV-2 Mpro amounted to 0%.

Consider `CC(C)(C)NC(=O)C(c1cccnc1)N(C(=O)CCl)c1cccc(N)c1` (stereo not shown) [Compound 21, N-(3-Aminophenyl)-N-(2-(tert-butylamino)-2-oxo-1-(pyridin-3-yl)ethyl)-2-chloroacetamide], for which the inhibition at 20 µM at SARS-CoV-2 Mpro was 33%.

With `Nc1cccc(N(C(=O)c2ccco2)C(C(=O)NCc2ccccc2)c2cccnc2)c1` (stereo not shown) [Compound 12, N-(3-Aminophenyl)-N-(2-(benzylamino)-2-oxo-1-(pyridin-3-yl)ethyl)furan-2-carboxamide], the inhibition at 20 µM at SARS-CoV-2 Mpro came out at 18%.
